Data from patent publication US8492426B1, “Use of carvedilol for treatment of diabetes mellitus” (priority 2012, dated 2013).

Legend:
[1] = system: patients with diabetes mellitus already on insulin; assay: Group 1: diabetes mellitus patients already on insulin with uncontrolled blood sugar, prescribed Carvedilol with diet; type: in vivo, human
Description: Data has been collected utilizing the various methods described herein and included for purposes of showing results and further exemplifying the preferred embodiments of this invention. A study was performed on two groups: Group 1 and Group 2. Both groups included patients with diabetes mellitus and a history of uncontrolled blood sugar. The patients of each group were between the ages of 40 and 85 and consisted of both males and females and various ethnicities. Group 1 consisted of patients that were already on insulin (humulin mix, novolog mix, etc.) and who were unable to control their blood sugar. The patients in Group 2 were taking oral medications, were unable to control their blood sugar, and needed insulin to regulate their disease. Normal blood sugar levels were considered to be 120 mg % (mg % is milligram per 100 cc blood), which was equivalent to 6.0 HbA1c before meals or while fasting. After the first visit and examination, the patients' blood sugar and HbA1c levels were reviewed. […] Then patients were requested to report their blood sugar weekly. […] HbA1c levels were checked approximately 2-3 months after controlling the blood sugar. Group 1 data is presented below for patients with Type II diabetes mellitus who were already taking insulin and were unable to control their blood sugar. The data includes blood sugar and HbA1c levels before and after taking Carvedilol. • 1. JBM-65-M was first seen in January 2012. Their HbA1c was more than 9.0 and fasting plasma glucose was 282 mg %. They were taking 35 units at night of Lente insulin and regular insulin before each meal at a dosage of 10-30 units, on a sliding scale. They began taking an effective dosage of Carvedilol with a diet in February 2012. […] BS-81-F was taking 36 units of Humulin N twice a day in February 2012. Their HbA1c was 7.6 and mean plasma glucose was 171 mg %. They began taking an effective dosage of Carvedilol immediately. In April 2012 their HbA1c was 6.5 and their mean plasma glucose was 140 mg %. […] patient four is a Type I diabetic with two episodes of myocardial infarction and four stents post Percutaneous Transluminal Coronary Angioplasty (PTCA). In January 2012 […] HbA1c was 8.2 with a mean […] glucose of 203 mg %. They were taking 400 units of Novolog mix 70/30 in two divided doses. After Carvedilol and an improved diet, the dose of insulin has been reduced to a total of 90 units a day in two divided doses. Their HbA1c is the same but recent blood sugar was 134 mg %. • 4. […] They were taking Novolog 70/30 40 units twice a day. They were started on Carvedilol with an improved diet. […] Currently they are reporting a plasma blood glucose below 120 mg %. • 5. […] They were taking Novlog mix 70/30 20 units twice a day. […] Group 2

[2] = system: Type II diabetes mellitus patients; assay: Group 2: Type II diabetes mellitus patients uncontrolled on diet and oral medication, Carvedilol used in place of insulin; type: in vivo, human
Description: Data has been collected utilizing the various methods described herein and included for purposes of showing results and further exemplifying the preferred embodiments of this invention. A study was performed on two groups: Group 1 and Group 2. Both groups included patients with diabetes mellitus and a history of uncontrolled blood sugar. The patients of each group were between the ages of 40 and 85 and consisted of both males and females and various ethnicities. Group 1 consisted of patients that were already on insulin (humulin mix, novolog mix, etc.) and who were unable to control their blood sugar. The patients in Group 2 were taking oral medications, were unable to control their blood sugar, and needed insulin to regulate their disease.
Normal blood sugar levels were considered to be 120 mg % (mg % is milligram per 100 cc blood), which was equivalent to 6.0 HbA1c before meals or while fasting. After the first visit and examination, the patients' blood sugar and HbA1c levels were reviewed. […] Then patients were requested to report their blood sugar weekly. […] HbA1c levels were checked approximately 2-3 months after controlling the blood sugar.
Group 2 consisted of Type II diabetes mellitus patients who could not control their blood sugar on diet nor oral medication and would need to start insulin. Carvedilol was used in place of insulin to control blood sugar as well as other anti-diabetic oral medications. • 1. […] Sitagliptin was then discontinued and the hypoglycemia subsequently disappeared. […] The last recorded HbA1c was 6.8 • 2. patient three had poorly controlled blood sugar but managed an HbA1c of 8.0 and mean fasting glucose of 183 mg %. They were taking three oral medications: Metformin 1000 mg BID, Sitagliptin 100 mg daily and Sulfonylurea. They were started on Carvedilol and their blood sugar came down to 90 mg %. […] Their HbA1c level is 6.5 • 3. […] They were prescribed Metformin and Glyburide Micro. They were also given Bayetta, however their blood sugar remained uncontrolled. […] Their HbA1c level is 8.4 • 4. […] The patient also suffered from severe Peripheral Neuritis. Their HbA1c was 10.2 in December 2011. The patient was taking Metformin 1000 mg twice a day, Sitagliptin 100 mg daily and Glyburide Micro 6 mg twice a day. The patient was started on Carvedilol in February 2012. Their HbA1c in late March 2012 was down to 8.2 with a mean plasma glucose of 189 mg %. […] Their HbA1c is now 7.8. • 5. […] They have been on Janumet […] twice a day, Glymeperide which was changed to Glyburide Micro 3 mg twice daily. […] Carvedilol was added to their regimen and their blood sugar was recently reported at 81 mg %. […] Their HbA1c level is 7.1

Question: COc1ccccc1OCCNCC(O)COc1cccc2[nH]c3ccccc3c12 (racemic) [Carvedilol, (±)-1-(Carbazol-4-yloxy-3-[[2-(o-methoxyphenoxy-)ethyl]amino]-2-propanol] was tested. Which fasting plasma glucose ([1]; patient five, April 2012, Carvedilol with diet since February 2012, before: 282 mg %) did it give?
Answer: Its fasting plasma glucose is 122 mg %.

Question: What about the HbA1c ([1]; patient five, April 2012, Carvedilol with diet since February 2012, before: more than 9.0) of the same compound?
Answer: The HbA1c was 5.5.

Question: What about the “insulin use after Carvedilol” value ([1]; patient five, by April 2012, before: 35 units Lente at night plus 10-30 units regular insulin before each meal) of the same compound?
Answer: The value was “taken off insulin completely”.

Question: And the “dose of insulin after Carvedilol” value ([1]; patient four, Type I diabetic, Carvedilol and improved diet, two divided doses, before: 400 units Novolog mix 70/30)?
Answer: Its value is 90 units a day.

Question: And the HbA1c ([1]; patient four, Type I diabetic, after Carvedilol and improved diet, before: 8.2)?
Answer: The HbA1c was “the same”.

Question: And the recent blood sugar ([1]; patient four, Type I diabetic, after Carvedilol and improved diet, before: mean plasma glucose 203 mg %)?
Answer: Its recent blood sugar is 134 mg %.

Question: What about the mean plasma glucose ([1]; patient nine, April 2012, Carvedilol since February 2012, before: 171 mg %) of the same compound?
Answer: Its mean plasma glucose is 140 mg %.

Question: And the HbA1c ([1]; patient nine, April 2012, Carvedilol since February 2012, before: 7.6)?
Answer: Its HbA1c is 6.5.

Question: And the “insulin use after Carvedilol” value ([1]; patient nine, by April 2012, before: 36 units Humulin N twice a day)?
Answer: The value was “taken off of insulin completely”.

Question: And the plasma glucose ([1]; patient seven, renal failure, after five weeks on Carvedilol, off insulin, before: 249 mg %)?
Answer: Its plasma glucose is “below 120 mg %”.

Question: And the “HbA1c corresponding to plasma glucose” value ([1]; patient seven, after five weeks on Carvedilol, before: 10.3)?
Answer: Its value is 6.0.

Question: What about the “insulin use after Carvedilol” value ([1]; patient seven, after five weeks on Carvedilol, before: Novlog mix 70/30 20 units twice a day) of the same compound?
Answer: Its value is “taken off insulin”.

Question: What about the HbA1c ([1]; patient two, April 2012, Carvedilol with improved diet, off insulin, before (December 2011): 11.4) of the same compound?
Answer: Its HbA1c is 8.6.

Question: And the plasma blood glucose ([1]; patient two, April 2012, before: 280 mg %)?
Answer: Its plasma blood glucose is 200 mg %.

Question: What about the “insulin use after Carvedilol” value ([1]; patient two, before: Novolog 70/30 40 units twice a day) of the same compound?
Answer: Its value is “came off of insulin”.

Question: And the plasma blood glucose ([1]; patient two, currently reported)?
Answer: Its plasma blood glucose is “below 120 mg %”.

Question: What about the “other anti-diabetic medication after Carvedilol” value (“other anti-diabetic medication” for short) ([2]; patient -76) of the same compound?
Answer: Its value is “able to stop Glyburide Micro”.

Question: And the blood sugar ([2]; patient -76, Carvedilol added to regimen, before: 273 mg % after cortisone shot, mean plasma glucose 163 mg %)?
Answer: The blood sugar was 81 mg %.

Question: What about the HbA1c ([2]; patient -76, on Carvedilol, before: 8.3) of the same compound?
Answer: The HbA1c was 7.1.

Question: What about the HbA1c ([2]; patient eight, started Carvedilol recently, before: 8.5) of the same compound?
Answer: The HbA1c was 8.4.

Question: What about the blood sugar ([2]; patient eight, started Carvedilol recently, before: fasting plasma glucose 197 mg %, uncontrolled on Metformin, Glyburide Micro, Bayetta) of the same compound?
Answer: Its blood sugar is “reached normal levels”.

Question: And the adverse effect ([2]; patient one, Carvedilol taken together with Sitagliptin, disappeared after Sitagliptin was discontinued)?
Answer: Its adverse effect is “hypoglycemia”.

Question: What about the “last recorded HbA1c” value ([2]; patient one, Carvedilol, Sitagliptin discontinued) of the same compound?
Answer: Its value is 6.8.

Question: And the blood sugar control ([2]; patient one, Carvedilol, Sitagliptin discontinued, before: blood sugar 200 mg %)?
Answer: Its blood sugar control is “controlled the patient's blood sugar”.

Question: And the “other anti-diabetic medication” value ([2]; patient six)?
Answer: Its value is “stopped taking Glyburide Micro”.

Question: And the mean plasma glucose ([2]; patient six, late March 2012, Carvedilol since February 2012)?
Answer: Its mean plasma glucose is 189 mg %.

Question: What about the HbA1c ([2]; patient six, late March 2012, Carvedilol since February 2012, before (December 2011): 10.2) of the same compound?
Answer: Its HbA1c is 8.2.

Question: What about the blood sugar ([2]; patient six, more recently reported) of the same compound?
Answer: Its blood sugar is 95 mg %.

Question: And the HbA1c ([2]; patient six, now, after stopping Glyburide Micro)?
Answer: The HbA1c was 7.8.

Question: And the “other anti-diabetic medication” value ([2]; patient three)?
Answer: Its value is “discontinued use of Sitagliptin”.

Question: What about the blood sugar ([2]; patient three, Carvedilol added to Metformin, Sitagliptin, Sulfonylurea, before: mean fasting glucose 183 mg %) of the same compound?
Answer: Its blood sugar is 90 mg %.

Question: What about the HbA1c ([2]; patient three, on Carvedilol, Sitagliptin discontinued, before: 8.0) of the same compound?
Answer: The HbA1c was 6.5.
